In patent US7208517B1, “Endothelin antagonists” (Abbott Labortories, priority 1994, dated 2007):

Target: T1, ETA Receptor (Rattus norvegicus, UniProt P26684)
T1 construct: endogenous in cells; host or cells: MMQ rat pituitary cells (membranes)
T1 sequence (P26684 21-426): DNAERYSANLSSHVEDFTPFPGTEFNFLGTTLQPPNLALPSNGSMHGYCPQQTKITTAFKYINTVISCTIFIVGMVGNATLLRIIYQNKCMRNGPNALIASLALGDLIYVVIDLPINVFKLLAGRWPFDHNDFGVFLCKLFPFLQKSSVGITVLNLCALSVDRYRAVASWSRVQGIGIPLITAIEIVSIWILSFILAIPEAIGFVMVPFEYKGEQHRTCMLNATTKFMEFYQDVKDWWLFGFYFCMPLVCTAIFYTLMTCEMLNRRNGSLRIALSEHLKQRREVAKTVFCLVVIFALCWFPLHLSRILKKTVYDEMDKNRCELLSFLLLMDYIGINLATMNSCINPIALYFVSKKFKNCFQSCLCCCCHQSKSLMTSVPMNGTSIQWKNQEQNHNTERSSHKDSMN
Assay: [125I]ET-1 binding to membranes from MMQ cells (ETA receptor binding assay, Table 4)
Conditions: test compound at 1 μM; 0.1 nM [125I]ET-1, MMQ cell membranes, 4 hours at 25° C.

| % Inhibition of ETA at 1 μM [%] | Structure (SMILES) |
| --- | --- |
| 78.2 | CCCN(C)C(=O)CN1CC(c2ccc(F)c(F)c2)C(C(=O)O)C1c1ccc(OC)cc1 (stereo not drawn) [Example 144, trans,trans-1-(N-Methyl-N-propylaminocarbonylmethyl)-2-(4-methoxyphenyl)-4-(3,4-difluorophenyl)pyrrolidine-3-carboxylic acid] |
| 32.4 | CCCN(C)C(=O)CN1CC(c2ccccc2)C(C(=O)O)C1c1ccc(OC)cc1 (stereo not drawn) [Example 145, trans,trans-1-(N-Methyl-N-propylaminocarbonylmethyl)-2-(4-methoxyphenyl)-4-(phenyl)pyrrolidine-3-carboxylic acid] |
| 25.0 | CCCN(C)C(=O)CN1CC(c2ccc(O)cc2)C(C(=O)O)C1c1ccc(OC)cc1 (stereo not drawn) [Example 146, trans,trans-1-(N-Methyl-N-propylaminocarbonylmethyl)-2-(4-methoxyphenyl)-4-(4-hydroxyphenyl)pyrrolidine-3-carboxylic acid] |
| 73.0 | CCCN(C)C(=O)CN1CC(c2ccc(OC)cc2OC)C(C(=O)O)C1c1ccc(OC)cc1 (stereo not drawn) [Example 147, trans,trans-1-(N-Methyl-N-propylaminocarbonylmethyl)-2-(4-methoxyphenyl)-4-(2,4-dimethoxyphenyl)pyrrolidine-3-carboxylic acid] |
| 94.7 | CCCCN(CCCC)C(=O)CN1CC(c2ccc3c(c2)CCO3)C(C(=O)O)C1c1ccc(OC)cc1 (stereo not drawn) [Example 148, trans,trans-1-(N,N-Di(n-butyl)aminocarbonylmethyl)-2-(4-methoxyphenyl)-4-(5-benzo-2,3-dihydrofuranyl)pyrrolidine-3-carboxylic acid] |
| 84.6 | CCCCN(CCCC)C(=O)CN1CC(c2ccc(OC)cc2)C(C(=O)O)C1c1ccc(OC)cc1 (stereo not drawn) [Example 149, trans,trans-1-(N,N-Di(n-butyl)aminocarbonylmethyl)-2-(4-methoxyphenyl)-4-(4-methoxyphenyl)pyrrolidine-3-carboxylic acid] |
| 93.6 | CCCCN(CCCC)C(=O)CN1CC(c2ccc(F)c(F)c2)C(C(=O)O)C1c1ccc(OC)cc1 (stereo not drawn) [Example 150, trans,trans-1-(N,N-Di(n-butyl)aminocarbonylmethyl)-2-(4-methoxyphenyl)-4-(3,4-difluorophenyl)pyrrolidine-3-carboxylic acid] |
| 80.5 | CCCCN(CCCC)C(=O)CN1CC(c2ccc(OC)cc2OC)C(C(=O)O)C1c1ccc(OC)cc1 (stereo not drawn) [Example 151, trans,trans-1-(N,N-Di(n-butyl)aminocarbonylmethyl)-2-(4-methoxyphenyl)-4-(2,4-dimethoxyphenyl)pyrrolidine-3-carboxylic acid] |
| 86.9 | CCCCN(CCCC)C(=O)CN1CC(c2ccc3c(c2)OCO3)C(C(=O)O)C1c1ccccc1 (stereo not drawn) [Example 152, trans,trans-1-(N,N-Di(n-butyl)aminocarbonylmethyl)-2-phenyl-4-(1,3-benzodioxol-5-yl)pyrrolidine-3-carboxylic acid] |
| 97.1 | CCCCN(CCCC)C(=O)CN1CC(c2ccc3c(c2)CCO3)C(C(=O)O)C1c1ccccc1 (stereo not drawn) [Example 153, trans,trans-1-(N,N-Di(n-butyl)aminocarbonylmethyl)-2-phenyl-4-(5-benzo-2,3-dihydrofuranyl)pyrrolidine-3-carboxylic acid] |
| 80.2 | CCCCN(CCCC)C(=O)CN1CC(c2ccc3c(c2)CCO3)C(C(=O)O)C1c1ccc(C(C)(C)C)cc1 (stereo not drawn) [Example 154, trans,trans-1-(N,N-Di(n-butyl)aminocarbonylmethyl)-2-(4-t-butylphenyl)-4-(5-benzo-2,3-dihydrofuranyl)pyrrolidine-3-carboxylic acid] |
| 92.6 | CCCCN(CCCC)C(=O)CN1CC(c2ccc3c(c2)OCO3)C(C(=O)O)C1c1ccoc1 (stereo not drawn) [Example 156, trans,trans-1-(N. N-Di(n-butyl)aminocarbonylmethyl)-2-(3-furyl)-4-(1,3-benzodioxol-5-yl)pyrrolidine-3-carboxylic acid] |
| 83.8 | CCCCN(CCCC)C(=O)CN1CC(c2ccc3c(c2)OCO3)C(C(=O)O)C1C(C)C (stereo not drawn) [Example 157, trans,trans-1-(N,N-Di(n-butyl)aminocarbonylmethyl)-2-(isopropyl)-4-(1,3-benzodioxol-5-yl)pyrrolidine-3-carboxylic acid] |
| 91.8 | CCCCN(CCCC)C(=O)CN1CC(c2ccc3c(c2)OCO3)C(C(=O)O)C1c1ccc(C(C)(C)C)cc1 (stereo not drawn) [Example 158, trans,trans-1-(N,N-Di(n-butyl)aminocarbonylmethyl)-2-(4-t-butylphenyl)-4-(1,3-benzodioxol-5-yl)pyrrolidine-3-carboxylic acid] |
| 36.2 | CCCCN(CCCC)C(=O)CN1CC(c2ccc3c(c2)CCO3)C(C(=O)O)C1c1ccc(C(C)(C)C)cc1 (stereo not drawn) [Example 159, trans,trans-1-(N,N-Di(n-butyl)aminocarbonylmethyl)-2-(4-t-butylphenyl)-4-(5-benzo-2,3-dihydrofuranylpyrrolidine-3-carboxylic acid] |
| 80.3 | CCCCN(CCCC)C(=O)CN1CC(c2ccc3c(c2)OCO3)C(C(=O)O)C1C1CCC(OC)CC1 (stereo not drawn) [Example 160B, trans,trans-1-(N,N-Di(n-butyl)aminocarbonylmethyl)-2-(anti-4-methoxycyclohexyl)-4-(1,3-benzodioxol-5-yl)pyrrolidine-3-carboxylic acid] |
| 93.6 | CCCCN(CCCC)C(=O)CN1CC(c2ccc3c(c2)OCO3)C(C(=O)O)C1[C@H]1CC[C@H](OC)CC1 (stereo partly drawn) [Example 161, trans,trans-1-(N,N-Di(n-butyl)aminocarbonylmethyl)-2-(syn-4-methoxycyclohexyl)-4-(1,3-benzodioxol-5-yl)pyrrolidine-3-carboxylic acid] |
| 91.5 | CCCCN(CCCC)C(=O)CN1CC(c2ccc3c(c2)CCO3)C(C(=O)O)C1c1ccc2c(c1)CCO2 (stereo not drawn) [Example 162B, trans,trans-1-(N,N-Di(n-butyl)aminocarbonylmethyl)-2,4-di(5-benzo-2,3-dihydrofuranyl)pyrrolidine-3-carboxylic acid] |
| 90.6 | CCCCN(CCCC)C(=O)CN1CC(c2ccc3c(c2)CCO3)C(C(=O)O)C1c1ccoc1 (stereo not drawn) [Example 163, trans,trans-1-(N,N-Di(n-butyl)aminocarbonylmethyl)-2-(3-furyl)-4-(5-benzo-2,3-dihydrofuranyl)pyrrolidine-3-carboxylic acid] |
| 98.6 | CCCCN(CCCC)C(=O)CN1CC(c2cccc(F)c2)C(C(=O)O)C1c1ccc(OC)cc1 (stereo not drawn) [Example 164, trans,trans-1-(N,N-Di(n-butyl)aminocarbonylmethyl)-2-(4-methoxyphenyl)-4-(3-fluorophenyl)pyrrolidine-3-carboxylic acid] |
| 54.1 | CCCCN(CCCC)C(=O)CN1CC(c2cccnc2)C(C(=O)O)C1c1ccc(OC)cc1 (stereo not drawn) [Example 165, trans,trans-1-(N,N-Di(n-butyl)aminocarbonylmethyl)-2-(4-methoxyphenyl)-4-(3-pyridyl)pyrrolidine-3-carboxylic acid] |
| 91.6 | CCCCN(CCCC)C(=O)CN1CC(c2ccc3c(c2)OCO3)C(C(=O)O)C1c1ccccc1F (stereo not drawn) [Example 166, trans,trans-1-(N,N-Di(n-butyl)aminocarbonylmethyl)-2-(2-fluorophenyl)-4-(1,3-benzodioxol-5-yl)pyrrolidine-3-carboxylic acid] |
| 94.4 | CCCCN(CCCC)C(=O)CN1CC(c2ccc3c(c2)OCO3)C(C(=O)O)C1c1cccc(F)c1 (stereo not drawn) [Example 167, trans,trans-1-(N,N-Di(n-butyl)aminocarbonylmethyl)-2-(3-fluorophenyl)-4-(1,3-benzodioxol-5-yl)pyrrolidine-3-carboxylic acid] |
| 77.7 | COc1ccc(C2C(C(=O)O)C(c3ccc4c(c3)OCO4)CN2CC(=O)N2CCCC(C)(C)C2)cc1 (stereo not drawn) [Example 294, trans—trans-2-(4-Methoxyphenyl)-4-(1,3-benzodioxol-5-yl)-1-[3,3-dimethylpiperidinyl-carbonylmethyl]-pyrrolidine-3-carboxylic acid] |
| 87.1 | COc1ccc(C2C(C(=O)O)C(c3ccc4c(c3)OCO4)CN2CC(=O)N2CCc3ccccc3C2)cc1 (stereo not drawn) [Example 296, trans—trans-2-(4-Methoxyphenyl)-4-(1,3-benzodioxol-5-yl)-1-[1,2,3,4-tetrahydroisoquinolin-2-carbonylmethyl]-pyrrolidine-3-carboxylic acid] |
| 84.4 | CCCN(CCN1CC(c2ccc3c(c2)OCO3)C(C(=O)O)C1c1ccc(OC)cc1)C(=O)N(C)C (stereo not drawn) [Example 297, trans—trans-2-(4-Methoxyphenyl)-4-(1,3-benzodioxol-5-yl)-1-[2-(N-propyl-N-dimethylaminocarbonylamino)ethyl]-pyrrolidine-3-carboxylic acid] |
| 93.3 | CCCN(CCN1CC(c2ccc3c(c2)OCO3)C(C(=O)O)C1c1ccc(OC)cc1)S(=O)(=O)c1ccc([N+](=O)[O-])cc1 (stereo not drawn) [Example 298, trans,trans-2-(4-Methoxyphenyl)-4-(1,3-benzodioxol-5-yl)-1-(2-(N-propyl-N-(4-nitrobenzenesulfonyl)amino)ethyl)-pyrrolidine-3-carboxylic acid] |

| Structure (SMILES) | % Inhibition of ETA at 1 μM [%] |
| --- | --- |
| CCCN(CCN1CC(c2ccc3c(c2)OCO3)C(C(=O)O)C1c1ccc(OC)cc1)C(=O)OCC(C)C (stereo not drawn) [Example 295, trans—trans-2-(4-Methoxyphenyl)-4-(1,3-benzodioxol-5-yl)-1-[2-(N-propyl-N-iso-butoxycarbonylamino)ethyl]-pyrrolidine-3-carboxylic acid] | 93.0 |
